Where two headings read alike, the source gives them in different places.
How the values were obtained:
[1] = Immunogenicity, anti-drug antibody-positive responses; type: in vivo, human
Method: (§1) Pharmacokinetic parameters were assessed on pre-defined visits in all participants who received IBI362. […] Standard non-compartmental pharmacokinetics methods were used to analyze IBI362 plasma concentration data using Pkanalix 2020R1 (Lixoft, Antony, France). The values for Cmax and Tmax were taken directly from the observed plasma concentration data. The terminal-phase disposition rate constant (λz) was estimated using a log-linear regression of the concentration data in the terminal disposition phase, and T1/2 was estimated as ln(2)/λz. Immunogenicity was assessed by measures of anti-drug antibody-positive responses.

[2] = test system: Chinese adults with overweight or obesity; experiment: Efficacy and pharmacodynamic endpoints, change from baseline to week 12; type: in vivo, human; details: for Body weight Percent CFB / BMI CFB / Body weight CFB / Diastolic blood pressure CFB / Fasting insulin CFB / Fasting plasma glucose CFB / LDL cholesterol CFB / Systolic blood pressure CFB / Total cholesterol CFB / Triglycerides CFB / Waist circumference CFB / Serum uric acid CFB: MMRM; for HbA1c CFB: ANCOVA, LOCF; for Serum uric acid CFB: post-hoc, baseline to week 12, LS mean (95% CI)
From the text: The secondary pharmacodynamic endpoints included changes from baseline (pre-dose on day 0) to week 12 in fasting plasma glucose and fasting insulin levels. The secondary efficacy endpoints included changes from baseline to week 12 in body weight, waist circumference, waist-to-hip ratio, BMI, blood pressure, heart rate, lipids and HbA1c levels. Post-hoc comparison of changes from baseline to week 12 in serum uric acid levels was done between participants receiving IBI362 in each cohort and those receiving placebo. We used mixed effect model for repeated measures (MMRM) for post-baseline repeated measures to analyse continuous efficacy and pharmacodynamic endpoints. The MMRM included the corresponding baseline value, treatment, visit and treatment-by-visit as fixed effects and participant as a random effect. Mean change from baseline or mean percent change from baseline were analysed using a restricted maximum likelihood (REML)-based repeated measures approach in combination with the Newton Raphson Algorithm. The fix effect of visit was fitted as a repeated effect and an unstructured covariance matrix was used. In case of non-converge, matrix like Variance Components and Compound Symmetry will be tested in a subsequent order until model-convergence is achieved. The between-subject degree of freedom was used in estimating fixed effects. No missing data imputation was conducted. Least squares mean estimates of treatment effect at week 12 as well as treatment difference versus placebo alongside with two-sided 95% confidence intervals were provided for key efficacy and pharmacodynamic endpoints. Significance test for body weight was based on least squares means using a two-sided α of 0.05. HbA1c was measured only at baseline and week 12. Least squares mean estimates for HbA1c were computed from an Analysis of Covariance (ANCOVA) model with baseline HbA1c value and treatment as covariates. Last observation carried forward (LOCF) was used for imputing missing post-baseline measure. Least squares mean estimates of treatment effect at week 12 alongside with two-sided 95% confidence intervals were provided. Post-hoc analysis of serum uric acid was performed using MMRM model described above.

[3] = Pharmacokinetics, non-compartmental, plasma concentration after subcutaneous dosing; type: in vivo; details: human; for Cmax / AUC(0-t): n = 8, geometric mean (CV%); for AUC(0-t): read-out: AUC0–168h
Method: as §1
Safety analyses were done in the safety population (defined as all participants who received at least one dose of the study treatment). Pharmacokinetic analyses were done in the pharmacokinetic population (defined as all participants who received at least one dose of IBI362 and had at least one valid plasma concentration assessment). Pharmacodynamic analyses were done in the pharmacodynamic population (defined as all participants who received at least one dose of the study treatment and had baseline and at least one valid assessment). Efficacy analyses were done in the efficacy population (defined as all participants who received at least one dose of the study treatment and had at least one post-baseline assessment).

[4] = 1.0–2.0–3.0 mg sc once weekly, baseline to week 12, n = 8, LS mean (95% CI)
[5] = 1.5–3.0–4.5 mg sc once weekly, baseline to week 12, n = 8, LS mean (95% CI)
[6] = 2.0–4.0–6.0 mg sc once weekly, baseline to week 12, n = 7, LS mean (95% CI)
[7] = 1 mg, after first sc dose, 1.0–2.0–3.0 mg regimen
[8] = 1.5 mg, after first sc dose, 1.5–3.0–4.5 mg regimen
[9] = 2 mg, after first sc dose, 2.0–4.0–6.0 mg regimen

For CC(C)C[C@H](NC(=O)[C@H](CC(C)C)NC(=O)[C@H](Cc1c[nH]c2ccccc12)NC(=O)[C@H](CCC(=O)O)NC(=O)[C@@H](NC(=O)[C@H](Cc1ccccc1)NC(=O)[C@H](CCC(=O)O)NC(=O)[C@H](CCCCNC(=O)COCCOCCNC(=O)COCCOCCNC(=O)CC[C@H](NC(=O)CCCCCCCCCCCCCCCCCCC(=O)O)C(=O)O)NC(=O)[C@H](C)NC(=O)[C@H](CCCCN)NC(=O)[C@H](CCCCN)NC(=O)[C@H](CCC(=O)O)NC(=O)[C@H](CC(=O)O)NC(=O)[C@H](CC(C)C)NC(=O)[C@H](Cc1ccc(O)cc1)NC(=O)[C@H](CCCCN)NC(=O)[C@H](CO)NC(=O)[C@H](Cc1ccc(O)cc1)NC(=O)[C@H](CC(=O)O)NC(=O)[C@H](CO)NC(=O)[C@@H](NC(=O)[C@H](Cc1ccccc1)NC(=O)[C@@H](NC(=O)CNC(=O)[C@H](CCC(N)=O)NC(=O)C(C)(C)NC(=O)[C@@H](N)Cc1c[nH]cn1)[C@@H](C)O)[C@@H](C)O)C(C)C)C(=O)N[C@@H](CCC(=O)O)C(=O)NCC(=O)NCC(=O)N1CCC[C@H]1C(=O)N[C@@H](CO)C(=O)N[C@@H](CO)C(=O)NCC(N)=O [IBI362], the “Participants who developed anti-IBI362 antibody” value ([1]; 3.0 mg cohort) was “One”, the “Participants who developed anti-IBI362 antibody” value ([1]; 4.5 mg cohort) was “one” and the “Body weight Percent CFB” value ([2]; 1.0–2.0–3.0 mg sc once weekly (3.0 mg cohort), baseline to week 12, n = 8, LS mean (95% CI)) was −4.81%. The “HbA1c CFB” value [2, 4] was −0.38%, the “BMI CFB” value [2, 4] was −1.44 kg/m² and the “Body weight CFB” value [2, 4] was -3.80 kg. For the same compound, the “Diastolic blood pressure CFB” value [2, 4] was −8.48 mm Hg, the “Fasting insulin CFB” value [2, 4] was −3.58 µU/mL and the “Fasting plasma glucose CFB” value [2, 4] was -0.30 mmol/L. The “LDL cholesterol CFB” value [2, 4] was -0.11 mmol/L, the “Systolic blood pressure CFB” value [2, 4] was −8.26 mm Hg and the “Total cholesterol CFB” value [2, 4] was -0.74 mmol/L. The “Triglycerides CFB” value [2, 4] was -0.44 mmol/L, the “Waist circumference CFB” value [2, 4] was −3.25 cm and the “Body weight Percent CFB” value ([2]; 1.5–3.0–4.5 mg sc once weekly (4.5 mg cohort), baseline to week 12, n = 8, LS mean (95% CI)) was −6.40%. The “HbA1c CFB” value [2, 5] was −0.24%, the “BMI CFB” value [2, 5] was −2.00 kg/m² and the “Body weight CFB” value [2, 5] was -5.77 kg. For the same compound, the “Diastolic blood pressure CFB” value [2, 5] was −5.76 mm Hg, the “Fasting insulin CFB” value [2, 5] was −6.14 µU/mL and the “Fasting plasma glucose CFB” value [2, 5] was -0.11 mmol/L. The “LDL cholesterol CFB” value [2, 5] was -0.25 mmol/L, the “Systolic blood pressure CFB” value [2, 5] was −5.80 mm Hg and the “Total cholesterol CFB” value [2, 5] was -0.68 mmol/L. For the same compound, the “Triglycerides CFB” value [2, 5] was -0.55 mmol/L, the “Waist circumference CFB” value [2, 5] was −4.57 cm and the “Body weight Percent CFB” value ([2]; 2.0–4.0–6.0 mg sc once weekly (6.0 mg cohort), baseline to week 12, n = 7, LS mean (95% CI)) was −6.05%. For the same compound, the “HbA1c CFB” value [2, 6] was −0.23%, the “BMI CFB” value [2, 6] was −1.88 kg/m² and the “Body weight CFB” value [2, 6] was -5.12 kg. For the same compound, the “Diastolic blood pressure CFB” value [2, 6] was −2.73 mm Hg, the “Fasting insulin CFB” value [2, 6] was −0.42 µU/mL and the “Fasting plasma glucose CFB” value [2, 6] was -0.13 mmol/L. The “LDL cholesterol CFB” value [2, 6] was -0.34 mmol/L, the “Systolic blood pressure CFB” value [2, 6] was −5.59 mm Hg and the “Total cholesterol CFB” value [2, 6] was -0.81 mmol/L. For the same compound, the “Triglycerides CFB” value [2, 6] was -0.74 mmol/L, the “Waist circumference CFB” value [2, 6] was −5.00 cm and the “Serum ALT and AST levels” value ([2]; all three dose cohorts (Fig. S6)) was “decreased from baseline”. For the same compound, the “Serum uric acid CFB” value ([2]; 3.0 mg cohort (1.0-2.0-3.0 mg)) was -43.67 µmol/L, the “Serum uric acid CFB” value ([2]; 4.5 mg cohort (1.5-3.0-4.5 mg)) was -83.47 µmol/L and the “Serum uric acid CFB” value ([2]; 6.0 mg cohort (2.0-4.0-6.0 mg)) was -87.48 µmol/L. For the same compound, the “Participants with coincident decrease in body weight, LDL cholesterol, triglycerides, blood pressure and serum uric acid” value ([2]; week 12, all IBI362 cohorts, 10 participants, data not shown) was 41.7%, the “Participants achieving ≥5% weight loss from baseline” value ([2]; week 12, all IBI362 cohorts, thirteen participants) was 54.2% and the Cmax [3, 7] was 82.4 ng/mL. It also gave an AUC(0-t) [3, 7] of 12500 ng·h/mL, a Tmax ([3]; 1 mg, after first sc dose, 1.0–2.0–3.0 mg regimen, n = 8, median (range), read-out: Tmax) of 71.9 h and a Cmax [3, 8] of 99.6 ng/mL. It also gave an AUC(0-t) [3, 8] of 15600 ng·h/mL, a Tmax ([3]; 1.5 mg, after first sc dose, 1.5–3.0–4.5 mg regimen, n = 8, median (range), read-out: Tmax) of 84.5 h and a Cmax [3, 9] of 134 ng/mL. The AUC(0-t) [3, 9] was 19200 ng·h/mL, the Tmax ([3]; 2 mg, after first sc dose, 2.0–4.0–6.0 mg regimen, n = 8, median (range), read-out: Tmax) was 71.9 h and the Tmax ([3]; first sc doses, all cohorts, read-out: median Tmax) was 72 h.

Source: paper PMC8374649, “IBI362 (LY3305677), a weekly-dose GLP-1 and glucagon receptor dual agonist, in Chinese adults with overweight or obesity: A randomised, placebo-controlled, multiple ascending dose phase 1b study” (EClinicalMedicine, 2021)
